Where two headings read alike, the source gives them in different places.
Legend:
[1] = target: T1, rat GPR14 (U-II receptor) (Rattus norvegicus, UniProt P49684); assay: Rat UII Calcium Mobilization FLIPR Assay; type: cell-based; settings: average value for the compound tested; read-out: Rat UII FLIPR Average IC50
T1 construct: expressed in transfected cells
T1 sequence (P49684 1-386): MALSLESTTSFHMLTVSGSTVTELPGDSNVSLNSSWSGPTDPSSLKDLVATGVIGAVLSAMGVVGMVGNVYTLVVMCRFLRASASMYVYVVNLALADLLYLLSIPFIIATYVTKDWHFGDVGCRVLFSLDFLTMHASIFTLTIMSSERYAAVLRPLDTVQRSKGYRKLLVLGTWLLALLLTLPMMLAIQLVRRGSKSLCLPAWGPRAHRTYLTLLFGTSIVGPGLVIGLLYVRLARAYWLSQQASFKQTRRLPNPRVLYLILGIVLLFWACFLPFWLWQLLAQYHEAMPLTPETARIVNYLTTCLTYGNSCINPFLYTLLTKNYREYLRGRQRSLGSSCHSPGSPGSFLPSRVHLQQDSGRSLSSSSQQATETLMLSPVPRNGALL
Procedure, shortened: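 CHO cells stably expressing rat U-II receptor, seeded 24 h before assay, were loaded with FLIPR calcium dye in HBSS/20 mM HEPES/0.1% BSA/2.5 mM probenecid, pH 7.4, for 1 h at 37° C. Calcium mobilization then read by FLIPR at 23° C.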

[2] = target: T2, endogenous human UII receptor (Homo sapiens, UniProt Q9UKP6); assay: Human Radioligand Binding Assay ((^125I)-U-II binding to human skeletal muscle myoblasts)
T2 sequence (Q9UKP6 1-389): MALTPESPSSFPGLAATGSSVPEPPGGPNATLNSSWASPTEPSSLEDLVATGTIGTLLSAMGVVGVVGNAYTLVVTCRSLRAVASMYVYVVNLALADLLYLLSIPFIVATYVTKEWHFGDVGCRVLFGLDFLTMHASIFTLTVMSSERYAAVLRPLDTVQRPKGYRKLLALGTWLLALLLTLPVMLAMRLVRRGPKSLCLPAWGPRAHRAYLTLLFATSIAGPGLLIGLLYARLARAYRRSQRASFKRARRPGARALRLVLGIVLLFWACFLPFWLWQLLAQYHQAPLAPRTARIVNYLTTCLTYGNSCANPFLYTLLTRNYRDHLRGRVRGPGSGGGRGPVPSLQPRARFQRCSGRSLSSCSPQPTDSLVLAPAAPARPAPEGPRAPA

[3] = target: T3, Human UII receptor, 6D9 human rhabdomyosarcoma cells (Homo sapiens, UniProt Q9UKP6); assay: Human UII Calcium Mobilization Assay; type: cell-based; settings: average value, FLIPR TETRA, read-out: Human UII Ca^+ Mobilization Average IC50
T3 construct: 6D9: isolated by dilution subcloning of RMS13 cells, ATCC® Number: CRL-2061; host or cells: 6D9 human rhabdomyosarcoma cells (subclone of RMS13)
T3 sequence (Q9UKP6 1-389): T2 sequence (Q9UKP6 1-389)
Procedure, shortened: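 6D9 rhabdomyosarcoma cells loaded 45 min at 37° C with calcium dye (1.25 mM probenecid, 0.01% FBS, HBSS/20 mM HEPES). Antagonist and U-II agonist added at room temperature; FLIPR fluorescence read over 4 min; EC50/IC50 fitted. DMSO ≤0.1% final.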

[4] = read-out: Human UII Average Binding Ki, average value, (^125I)-U-II binding to human skeletal muscle myoblasts (HSMM), 25° C., 3 h

| SMILES | IC50 [1] | Ki [2] | IC50 [3] | Ki [2, 4] |
| --- | --- | --- | --- | --- |
| COc1ccc(CC(c2ccc(OC)c(OC)c2)N2C(=O)c3cccc(N4CCN([C@H](C)c5ccccc5)CC4)c3C2=O)cc1OC (stereo partly drawn) [Cpd 123, 2-[1,2-bis-(3,4-dimethoxy-phenyl)-ethyl]-4-[4-(1R)-(1-phenyl-ethyl)-piperazin-1-yl]-isoindole-1,3-dione] | 250 nM | 570 nM | 3100 nM |  |
| COc1ccc([C@@H](CCCNS(=O)(=O)c2sc(C)nc2C)N2C(=O)c3cccc(N4CCN([C@H](C)c5ccccc5)CC4)c3C2=O)cc1OC [Cpd 124, (R)-2,4-dimethyl-thiazole-5-sulfonic acid (4-(3,4-dimethoxy-phenyl)-4-{1,3-dioxo-4-[4-(1R)-(1-phenyl-ethyl)-piperazin-1-yl]-1,3-dihydro-isoindol-2-yl}-butyl)-amide] | 28 nM | 320 nM | 300 nM |  |
| COc1ccc([C@@H](CCCNS(=O)(=O)c2c(C)n[nH]c2C)N2C(=O)c3cccc(N4CCN([C@H](C)c5ccccc5)CC4)c3C2=O)cc1OC [Cpd 125, (R)-3,5-dimethyl-1H-pyrazole-4-sulfonic acid (4-(3,4-dimethoxy-phenyl)-4-{1,3-dioxo-4-[4-(1R)-(1-phenyl-ethyl)-piperazin-1-yl]-1,3-dihydro-isoindol-2-yl}-butyl)-amide] | 11 nM |  | 47 nM | 13 nM |
| COc1ccc([C@@H](CCCNS(=O)(=O)c2cn(C)nc2C)N2C(=O)c3cccc(N4CCN([C@H](C)c5ccccc5)CC4)c3C2=O)cc1OC [Cpd 128, (R)-1,3-dimethyl-1H-pyrazole-4-sulfonic acid (4-(3,4-dimethoxy-phenyl)-4-{1,3-dioxo-4-[4-(1R)-(1-phenyl-ethyl)-piperazin-1-yl]-1,3-dihydro-isoindol-2-yl}-butyl)-amide] | 8.9 nM | 110 nM | 280 nM |  |
| COc1ccc([C@@H](CCCNS(=O)(=O)c2cnoc2C)N2C(=O)c3cccc(N4CCN([C@H](C)c5ccccc5)CC4)c3C2=O)cc1OC [Cpd 138, (R)-5-methyl-isoxazole-4-sulfonic acid (4-(3,4-dimethoxy-phenyl)-4-{1,3-dioxo-4-[4-(1R)-(1-phenyl-ethyl)-piperazin-1-yl]-1,3-dihydro-isoindol-2-yl}-butyl)-amide] | 20 nM |  | 130 nM | 32 nM |
| COc1ccc([C@@H](CCCNS(=O)(=O)c2cn(C)c(C)n2)N2C(=O)c3cccc(N4CCN([C@H](C)c5ccccc5)CC4)c3C2=O)cc1OC [Cpd 140, (R)-1,2-dimethyl-1H-imidazole-4-sulfonic acid (4-(3,4-dimethoxy-phenyl)-4-{1,3-dioxo-4-[4-(1R)-(1-phenyl-ethyl)-piperazin-1-yl]-1,3-dihydro-isoindol-2-yl}-butyl)-amide] | 14 nM |  | 220 nM | 16 nM |
| COc1ccc([C@@H](CCCNC(=O)c2cnoc2C)N2C(=O)c3cccc(N4CCN([C@H](C)c5ccccc5)CC4)c3C2=O)cc1OC [Cpd 144, (R)-5-methyl-isoxazole-4-carboxylic acid (4-(3,4-dimethoxy-phenyl)-4-{1,3-dioxo-4-[4-(1R)-(1-phenyl-ethyl)-piperazin-1-yl]-1,3-dihydro-isoindol-2-yl}-butyl)-amide] | 11 nM |  | 760 nM | 130 nM |

More lines, main results first:

| IC50 [1] | Ki [2] | IC50 [3] | SMILES | Ki [2, 4] |
| --- | --- | --- | --- | --- |
| 9.4 nM | 9 nM | 160 nM | COc1ccc([C@@H](CCCNS(=O)(=O)O)N2C(=O)c3cccc(N4CCN([C@H](C)c5ccccc5)CC4)c3C2=O)cc1OC [Cpd 129, (R)-(4-(3,4-dimethoxy-phenyl)-4-{1,3-dioxo-4-[4-(1R)-(1-phenyl-ethyl)-piperazin-1-yl]-1,3-dihydro-isoindol-2-yl}-butyl)-sulfamic acid] |  |
| 9.8 nM | 72 nM | 340 nM | COc1ccc([C@@H](CCCNS(=O)(=O)c2cnn(C)c2C)N2C(=O)c3cccc(N4CCN([C@H](C)c5ccccc5)CC4)c3C2=O)cc1OC [Cpd 132, (R)-1,5-dimethyl-1H-pyrazole-4-sulfonic acid (4-(3,4-dimethoxy-phenyl)-4-{1,3-dioxo-4-[4-(1R)-(1-phenyl-ethyl)-piperazin-1-yl]-1,3-dihydro-isoindol-2-yl}-butyl)-amide] |  |
| 6.2 nM | 61 nM | 360 nM | COc1ccc([C@@H](CCCNS(=O)(=O)c2cnn(C)c2)N2C(=O)c3cccc(N4CCN([C@H](C)c5ccccc5)CC4)c3C2=O)cc1OC [Cpd 136, (R)-1-methyl-1H-pyrazole-4-sulfonic acid (4-(3,4-dimethoxy-phenyl)-4-{1,3-dioxo-4-[4-(1R)-(1-phenyl-ethyl)-piperazin-1-yl]-1,3-dihydro-isoindol-2-yl}-butyl)-amide] |  |
| 29 nM | 46 nM | 290 nM | COc1ccc([C@@H](CCCNS(=O)(=O)c2c(C)noc2C)N2C(=O)c3cccc(N4CCN([C@H](C)c5ccccc5)CC4)c3C2=O)cc1OC [Cpd 139, (R)-3,5-dimethyl-isoxazole-4-sulfonic acid (4-(3,4-dimethoxy-phenyl)-4-{1,3-dioxo-4-[4-(1R)-(1-phenyl-ethyl)-piperazin-1-yl]-1,3-dihydro-isoindol-2-yl}-butyl)-amide] |  |
| 16 nM | 120 nM | 750 nM | COc1ccc([C@@H](CCCNc2ncccn2)N2C(=O)c3cccc(N4CCN([C@H](C)c5ccccc5)CC4)c3C2=O)cc1OC [Cpd 145, (R)-2-[1-(3,4-dimethoxy-phenyl)-4-(pyrimidin-2-ylamino)-butyl]-4-[4-(1R)-(1-phenyl-ethyl)-piperazin-1-yl]-isoindole-1,3-dione] |  |
| 29 nM | 640 nM | 2700 nM | COc1ccc([C@@H](CCCNC(=N)N)N2C(=O)c3cccc(N4CCN([C@H](C)c5ccccc5)CC4)c3C2=O)cc1OC [Cpd 146, (R)-N-(4-(3,4-dimethoxy-phenyl)-4-{1,3-dioxo-4-[4-(1R)-(1-phenyl-ethyl)-piperazin-1-yl]-1,3-dihydro-isoindol-2-yl}-butyl)-guanidine] |  |
| 32 nM | 160 nM | 2100 nM | COc1ccc([C@@H](CCCNC(=O)c2cccn2C)N2C(=O)c3cccc(N4CCN([C@H](C)c5ccccc5)CC4)c3C2=O)cc1OC [Cpd 147, (R)-1-methyl-1H-pyrrole-2-carboxylic acid (4-(3,4-dimethoxy-phenyl)-4-{1,3-dioxo-4-[4-(1R)-(1-phenyl-ethyl)-piperazin-1-yl]-1,3-dihydro-isoindol-2-yl}-butyl)-amide] |  |
| 18 nM | > 200 nM | 1100 nM | COc1ccc([C@@H](CCCNC(=O)c2ccc(S(N)(=O)=O)n2C)N2C(=O)c3cccc(N4CCN([C@H](C)c5ccccc5)CC4)c3C2=O)cc1OC [Cpd 148, (R)-1-methyl-5-sulfamoyl-1H-pyrrole-2-carboxylic acid (4-(3,4-dimethoxy-phenyl)-4-{1,3-dioxo-4-[4-(1R)-(1-phenyl-ethyl)-piperazin-1-yl]-1,3-dihydro-isoindol-2-yl}-butyl)-amide] |  |
| 15 nM | 71 nM | 760 nM | COc1ccc([C@@H](CCCNC(=O)[C@H]2CCCN2C(C)=O)N2C(=O)c3cccc(N4CCN([C@H](C)c5ccccc5)CC4)c3C2=O)cc1OC [Cpd 149, (R)-1-acetyl-pyrrolidine-2-carboxylic acid (R)-(4-(3,4-dimethoxy-phenyl)-4-{1,3-dioxo-4-[4-(1R)-(1-phenyl-ethyl)-piperazin-1-yl]-1,3-dihydro-isoindol-2-yl}-butyl)-amide] |  |
| 38 nM | 74 nM | 860 nM | COc1ccc([C@@H](CCCNC(=O)c2ccccn2)N2C(=O)c3cccc(N4CCN([C@H](C)c5ccccc5)CC4)c3C2=O)cc1OC [Cpd 150, (R)-pyridine-2-carboxylic acid (4-(3,4-dimethoxy-phenyl)-4-{1,3-dioxo-4-[4-(1R)-(1-phenyl-ethyl)-piperazin-1-yl]-1,3-dihydro-isoindol-2-yl}-butyl)-amide] |  |
